In US20240059740A1, “CYCLIC PEPTIDES AND USES THEREOF” (PRE[…] INC., priority 2020, published 2024):
Residues, ends and D or L forms follow the SMILES beside them.

How the values were obtained:
Assay type in all cases: cell-based, human
U251 cells = assay: MTT assay for cytotoxicity, U251; conditions: 48 hours, % viability of control
Text: The MTT (3-[4.5-dimethylthiazol-2-yl]-2,5═diphenyl tetrazolium bromide) assay is based on a process undertaken by living cells, involving the conversion of MTT into formazan crystals. This assay is used routinely to measure the in vitro cytotoxic effects of drugs on cell lines or primary patient cells (Van Meerloo et al., 2011). The MTT assay measures mitochondrial activity, so in some instances where the peptide activates mitochondrial response, the results appear to increase the number of cells present i.e. >100% cell viability.
The aim of this experiment was to identify peptide concentrations that are active on living cells and cell viability was assessed.
The glioblastoma multiforme (GBM) cell lines used were U87 and U251 cells and patient derived cells grown as oncospheres (081024 cells). Human adherent GBM cell lines U87 and U251 were cultured in RPMI medium (Life Technologies Melbourne Australia) supplemented with 5% v/v FBS, 100 U/mL penicillin and 100 μg/mL streptomycin. 081024 cells were cultrured in NeuroCult™ NS-A Proliferation medium with 0.2% (v/v) heparin, 20 ng/mL EGF and 10 ng/mL FGF.
8×10^3 U87 and 7×10^3 U251 cells per well were seeded in 96 well plates in 200 μL serum-containing RPMI medium and incubated at 37° C. with 5% CO2 for 24 hours. After one wash with serum-free medium, 100 μL serum-free medium with different concentration of peptide SEQ ID NO:1 was added to each well. After 48 hours incubation, 10 μL of 0.5 mg/mL MTT was added and incubated for 2 hours at 37° C. Formazan crystals were dissolved by 200 μL/well dimethyl sulfoxide (DMSO) and shaking for 15 minutes. The UV absorbance was read with an iMark™ microplate absorbance reader at 595 nm (Bio-Rad Laboratories). Background absorbance was subtracted and results expressed as the % viability of control (untreated cells).

uPA = assay: Casein-plasminogen zymography of conditioned media, uPA production; conditions: for uPA production: compared to control containing no peptide
Text: To assess whether the peptide SEQ ID NO.1 impacted MMP-2, MMP-9 and uPA production Zymography was used.
Zymography is a technique for studying hydrolytic enzymes on the basis of substrate degradation. The in-gel zymography hydrolytic enzymes are separated by their molecular weights and detected by their ability to degrade a substrate. To detect the activity of MMP-2 and MMP-9 in various cell lines, conditioned media were collected in 3 independent experiments and analysed by gelatin zymography to quantify the level of gelatin digestion, which reflects MMP-2 and MMP-9 activity and production. Casein-Plasminogen zymography was conducted to determine the activity level of uPA in the conditioned medium from various cell lines. Active uPA converts plasminogen into plasmin which then digests casein, thus clear bands where digestion of casein have occurred indirectly represent uPA activity.
The effect of the peptides on matrix protease production was tested using in-gel zymography. If the substrate included in the gel is gelatin, the enzymes detected are gelatinases: MMP-2 and MMP-9 (the latter is often of low abundance). If the gel contains casein and plasminogen, the enzymes tested are urokinase plasminogen activators (uPA); uPA is a therapeutic target in GBM.
An equal amount of protein from each sample was mixed with 5 μL of Laemmli buffer (0.01% Bromophenol Blue (W/V), 5% SDS (W/V), 22% glycerol (V/V), 14% 0.5 M Tris pH 6.8 (V/V)) and loaded onto a 10% polyacrylamide gel co-polymerized with 1 mg/ml of gelatin, and electrophoresed at 120 V for 2 hours on ice. The gel was incubated in […] solution (Triton X-100 2.5% (V/V), 1 M Tris pH 7.5 5% (V/V), 0.5 M CaCl2 1% (W/V) at room temperature overnight on an orbital shaker. The gel was incubated in a second solution for 3 hours at 37° C. The gel was then stained with Coomassie blue solution (Coomassie blue 0.25%, methanol 45%, acetic acid 10%) and destained in methanol 25% (V/V), acetic acid 10% (V/V) destaining solution until clear bands against the dark background appeared around 72 kDa and 95 kDa, representing MMP-2 and MMP-9 activity, respectively. Clear bands around 50 kDa appeared against the dark background representing uPA activity. The gels were scanned, and uPA, MMP-2 and MMP-9 were quantified by densitometry using NIH Image J software.
SEQ ID NO.1 was compared to a control containing no peptide to evaluate whether the peptide can reduce the production of matrix proteinases. […] This could be confirmed using a MMP-9 quantification kit, and altered production by a transcriptional mechanism can be unveiled using qRT-PCR.

uPA (PLAU) mRNA = assay: Real time RT-PCR, uPA mRNA expression
Text: The real-time reverse transcription polymerase chain reaction (RT-PCR) uses fluorescent reporter molecules to monitor the production of amplification products during each cycle of the PCR reaction. This combines the nucleic acid amplification and detection steps into one homogeneous assay and use of appropriate chemistries and data analysis eliminates the need for Southern blotting or DNA sequencing for amplicon identification. Its simplicity, specificity and sensitivity, together with its potential for high throughput and the ongoing introduction of new chemistries, more reliable instrumentation and improved protocols, has made real-time RT-PCR the benchmark technology for the detection and/or comparison of RNA levels.’
In order to detect and quantify the expression of specific genes at mRNA level, real-time reverse transcriptase polymerase chain reaction (Real time RT-PCR) was performed. Total RNA of samples was isolated and purified using the PureLink® RNA Mini Kit (Life technologies). The concentration of total RNA was detected by NanoDrop 2000 Spectrophotometer (Thermo Scientific). The total RNA (2000 ng) was reverse transcribed using the High-Capacity cDNA Reverse Transcription Kit (Applied Biosystems™).
The primers of target genes were TaqMan™ Gene Expression Assay for human PLAU (Hs01547054_m1), MMP-2 (Hs01548727_m1), MMP-9 (Hs00957562_m1), Snail-1 (Hs00195591_m1), Snail-2 (Hs00161904_m1), N-cadherin (Hs00983056_m1) and Twist (Hs01675818_s1). Relative quantification was done by reference to 18S ribosomal RNA (18S rRNA) and analysed using the comparative critical threshold (Ct) method
The mRNA expression of MMPs was measured using qRT-PCR. This was tested three independent times; the results are shown in Tables 9, 10 and 11 for U251, U87 cells and O81024 cells respectively. Results are reported as percent of the control cells (no treatment). Both MMP-2 and uPA were decreased in U251 by SEQ ID NO.1.

CC(C)C[C@@H]1NC(=O)[C@H](C)NC(=O)[C@@H](NC(=O)[C@@H]2CCCN2C(=O)[C@@H](N)CC(C)C)CSSC(C)(C)CNC(=O)CC[C@@H](C(=O)N[C@@H](CCCNC(=N)N)C(N)=O)NC(=O)[C@H](CC(=O)O)NC(=O)[C@H](CC(N)=O)NC1=O [SEQ ID NO: 1, Leu-Pro-c(SSA*-Ala-Leu-Asn-Asp-Glu)-Arg-NH2] (HELM PEPTIDE1{L.P.C.A.L.N.D.E.R.[am]}|CHEM1{[CC(C)(CN[*:2])S[*:1]]}$PEPTIDE1,CHEM1,3:R3-1:R1|PEPTIDE1,CHEM1,8:R3-1:R2$$$V2.0; N-terminus assumed)
Cell viability (U251 cells; 1 μM): 100.7%
Cell viability (U251 cells; 5 μM): 101.7%
Cell viability (U251 cells; 10 μM): 100.4%
Cell viability (U251 cells; 50 μM): 107.3%
Cell viability (U251 cells; 100 μM): 105.5%
Cell viability (U251 cells; 500 μM): 93.84%
Cell viability (U251 cells; 1 mM): 83.99%
uPA production (uPA; 081024 cells): 96.43 ± 16.6
uPA production (uPA; U87 cells): 89.03 ± 5.98
uPA production (uPA; U251 cells): 79.92 ± 8.86
production of uPA (overall, in words) (uPA; overall, all cell lines, cell-conditioned media): did not decrease
mRNA expression, uPA (uPA (PLAU) mRNA; 081024 cells, baseline expression level = 1): 0.85
mRNA expression, uPA (uPA (PLAU) mRNA; U87 cells, baseline expression level = 1): 1.19
mRNA expression, uPA (uPA (PLAU) mRNA; U251 cells, relative to control (no treatment), 18S rRNA reference, listed as SEQ ID NO. 1): 0.63
mRNA expression, uPA (uPA (PLAU) mRNA; U251 cells, relative to control (no treatment), 18S rRNA reference, listed as SEQ ID NO.1): decreased
